Measured values as given in patent US20170050957A1, “4-AMINO-6-(HETEROCYCLIC)PICOLINATES AND 6-AMINO-2-(HETEROCYCLIC)PYRIMIDINE-4-CARBOXYLATES AND THEIR USE AS HERBICIDES” (Dow AgroSciences LLC, priority 2013, published 2017).
Where two headings read alike, the source gives them in different places.

Key:
[1] = test system: Key Broadleaf Weed and Crop Species; experiment: Post-emergent Test II herbicidal activity (Table 15); assay type: in vivo; conditions: post-emergence, 336 h, 14 d; for pest or weed control at 35 g/ha: 35 g ai/ha
Procedure: (§1) Post-emergent Test II: Seeds or nutlets of the desired test plant species were planted in Sun Gro Metro-Mix® 360 planting mixture, which typically has a pH of 6.0 to 6.8 and an organic matter content of about 30 percent, in plastic pots with a surface area of 64 square centimeters. When required to ensure good germination and healthy plants, a fungicide treatment and/or other chemical or physical treatment was applied. The plants were grown for 7-21 d in a greenhouse with an approximate 15 h photoperiod which was maintained at about 23-29° C. during the day and 22-28° C. during the night. Nutrients and water were added on a regular basis and supplemental lighting was provided with overhead metal halide 1000-Watt lamps as necessary. The plants were employed for testing when they reached the first or second true leaf stage.
(§2) A weighed amount, determined by the highest rate to be tested, of each test compound was placed in a 25 mL glass vial and was dissolved in 4 mL of a 97:3 v/v mixture of acetone and DMSO to obtain concentrated stock solutions. […] The concentrated stock solutions obtained were diluted with 20 mL of an aqueous mixture containing acetone, water, isopropyl alcohol, DMSO, Atplus 411F crop oil concentrate, and Triton® X-155 surfactant in a 48.5:39:10:1.5:1.0:0.02 v/v ratio to obtain spray solutions containing the highest application rates. Additional application rates were obtained by serial dilution of 12 mL of the high rate solution into a solution containing 2 mL of 97:3 v/v mixture of acetone and DMSO and 10 mL of an aqueous mixture containing acetone, water, isopropyl alcohol, DMSO, Atplus 411F crop oil concentrate, and Triton X-155 surfactant in a 48.5:39:10:1.5:1.0:0.02 v/v ratio to obtain 1/2×, 1/4×, 1/8× and 1/16× rates of the high rate. Compound requirements are based upon a 12 mL application volume at a rate of 187 liters per hectare (L/ha). Formulated compounds were applied to the plant material with an overhead Mandel track sprayer equipped with 8002E nozzles calibrated to deliver 187 L/ha over an application area of 0.503 square meters at a spray height of 18 inches (43 cm) above the average plant canopy height. Control plants were sprayed in the same manner with the solvent blank.
(§3) The treated plants and control plants were placed in a greenhouse as described above and watered by subirrigation to prevent wash-off of the test compounds. After 14 d, the condition of the test plants as compared with that of the untreated plants was determined visually and scored on a scale of 0 to 100 percent where 0 corresponds to no injury and 100 corresponds to complete kill.

[2] = test system: Key Grass and Sedge Weeds as well as Grass Crops; experiment: Post-emergent Test II herbicidal activity (Table 16); assay type: in vivo; conditions: for pest or weed control at 35 g/ha / pest or weed control at 70 g/ha / pest or weed control at 140 g/ha: post-emergence, 336 h, 14 days after application; for Visual Growth Reduction (%) 14 Days After Application, ECHCG / Visual Growth Reduction (%) 14 Days After Application, SETFA / Visual Growth Reduction (%) 14 Days After Application, ZEAMX / Visual Growth Reduction (%) 14 Days After Application, ORYSA / Visual Growth Reduction (%) 14 Days After Application, TRZAS / Visual Growth Reduction (%) 14 Days After Application, CYPES: 14 d
Procedure: as §1, §2, §3

Compound: Cn1ccc2ccc(-c3nc(C(=O)O)c(Cl)c(N)c3F)cc21 [Compound 1.11]
- melting point: 173 to 176 °C

Compound: C=Cc1c(C(=O)OC)nc(-c2ccc3cc[nH]c3c2F)c(F)c1N [Compound 1.18, Methyl 4-amino-5-fluoro-6-(7-fluoro-1H-indol-6-yl)-3-vinylpicolinate]
- melting point: 164 to 166 °C

Compound: C=Cc1c(N)nc(-c2ccc3cc[nH]c3c2F)nc1C(=O)OC [Compound 1.38]
- melting point: 181 to 182 °C

Compound: COC(=O)c1nc(-c2cccc3c2ccn3C)c(F)c(N)c1Cl [Compound 1.41]
- melting point: 167 to 169 °C

Compound: Cn1ccc2c(-c3nc(C(=O)O)c(Cl)c(N)c3F)cccc21 [Compound 1.42]
- melting point: 158 to 160 °C

Compound: COC(=O)c1nc(-c2ccc(Cl)c3cc[nH]c23)nc(N)c1OC [Compound 1.50]
- melting point: 147 to 149 °C

Compound: COC(=O)c1nc(-c2ccc3occc3c2)c(F)c(N)c1Cl [Compound 2.01]
- melting point: 114 to 117 °C

Compound: Nc1c(F)c(-c2ccc3sccc3c2)nc(C(=O)O)c1Cl [Compound 3.04]
- melting point: 149 to 150 °C

Compound: COC(=O)c1nc(-c2cccc3c(Br)csc23)c(F)c(N)c1Cl [Compound 3.26, Methyl 4-amino-6-(3-bromobenzo[b]thiophen-7-yl)-3-chloro-5-fluoropicolinate]
- melting point: 181 to 184 °C

Compound: Nc1c(F)c(-c2ccc3[nH]ncc3c2)nc(C(=O)O)c1Cl [Compound 4.02]
- melting point: 284 to 287 °C

Compound: Cn1ncc2cc(-c3nc(C(=O)O)c(Cl)c(N)c3F)ccc21 [Compound 4.04]
- melting point: 186 to 188 °C

Compound: Cn1ncc2c(-c3nc(C(=O)O)c(Cl)c(N)c3F)cccc21 [Compound 4.11]
- melting point: 173 to 175 °C

Compound: COC(=O)c1nc(-c2cccc3[nH]ncc23)c(F)c(N)c1Cl [Compound 4.12]
- melting point: 212 to 215 °C

Compound: COC(=O)c1nc(-c2ccc3nc[nH]c3c2)c(F)c(N)c1Cl [Compound 7.01]
- melting point: 219 to 221 °C

Compound: Cn1cnc2ccc(-c3nc(C(=O)O)c(Cl)c(N)c3F)cc21 [Compound 7.03]
- melting point: 230 to 235 °C (dec.)

Compound: COC(=O)c1nc(-c2ccc3c(N(C)C)noc3c2)c(F)c(N)c1Cl [Compound 8.01]
- pest or weed control at 35 g/ha ([1]; Abutilon theophrasti, velvetleaf (Abutilon theophrasti), read-out: Visual Growth Reduction (%) 14 Days After Application, ABUTH): 0 to 29%
- pest or weed control at 35 g/ha ([1]; Amaranthus retroflexus, redroot pigweed (Amaranthus retroflexus), read-out: Visual Growth Reduction (%) 14 Days After Application, AMARE): 0 to 29%
- pest or weed control at 35 g/ha ([1]; Brassica napus, oilseed rape, canola (Brassica napus), read-out: Visual Growth Reduction (%) 14 Days After Application, BRSNN): 0 to 29%
- pest or weed control at 70 g/ha ([1]; Brassica napus, oilseed rape, canola (Brassica napus), 70 g ai/ha, read-out: Visual Growth Reduction (%) 14 Days After Application, BRSNN): 0 to 29%
- pest or weed control at 140 g/ha ([1]; Brassica napus, oilseed rape, canola (Brassica napus), 140 g ai/ha, read-out: Visual Growth Reduction (%) 14 Days After Application, BRSNN): 0 to 29%
- pest or weed control at 35 g/ha ([1]; Chenopodium album, lambsquarters (Chenopodium album), read-out: Visual Growth Reduction (%) 14 Days After Application, CHEAL): 0 to 29%
- pest or weed control at 35 g/ha ([1]; Euphorbia heterophylla, wild poinsettia (Euphorbia heterophylla), read-out: Visual Growth Reduction (%) 14 Days After Application, EPHHL): 0 to 29%
- pest or weed control at 35 g/ha ([1]; Helianthus annuus, sunflower (Helianthus annuus), read-out: Visual Growth Reduction (%) 14 Days After Application, HELAN): 0 to 29%
- pest or weed control at 35 g/ha ([2]; Cyperus esculentus, yellow nutsedge (Cyperus esculentus), 35 g ai/ha, read-out: Visual Growth Reduction (%) 14 Days After Application CYPES): 0 to 29%
- pest or weed control at 70 g/ha ([2]; Cyperus esculentus, yellow nutsedge (Cyperus esculentus), 70 g ai/ha, read-out: Visual Growth Reduction (%) 14 Days After Application CYPES): 0 to 29%
- pest or weed control at 140 g/ha ([2]; Cyperus esculentus, yellow nutsedge (Cyperus esculentus), 140 g ai/ha, read-out: Visual Growth Reduction (%) 14 Days After Application CYPES): 0 to 29%
- pest or weed control at 35 g/ha ([2]; Echinochloa crus-galli, barnyardgrass (Echinochloa crus-galli), 35 g ai/ha, read-out: Visual Growth Reduction (%) 14 Days After Application ECHCG): 0 to 29%
- pest or weed control at 70 g/ha ([2]; Echinochloa crus-galli, barnyardgrass (Echinochloa crus-galli), 70 g ai/ha, read-out: Visual Growth Reduction (%) 14 Days After Application ECHCG): 0 to 29%
- pest or weed control at 140 g/ha ([2]; Echinochloa crus-galli, barnyardgrass (Echinochloa crus-galli), 140 g ai/ha, read-out: Visual Growth Reduction (%) 14 Days After Application ECHCG): 0 to 29%
- pest or weed control at 35 g/ha ([2]; Oryza sativa, rice (Oryza sativa), 35 g ai/ha, read-out: Visual Growth Reduction (%) 14 Days After Application ORYSA): 0 to 29%
- pest or weed control at 70 g/ha ([2]; Oryza sativa, rice (Oryza sativa), 70 g ai/ha, read-out: Visual Growth Reduction (%) 14 Days After Application ORYSA): 0 to 29%
- pest or weed control at 140 g/ha ([2]; Oryza sativa, rice (Oryza sativa), 140 g ai/ha, read-out: Visual Growth Reduction (%) 14 Days After Application ORYSA): 0 to 29%
- pest or weed control at 35 g/ha ([2]; Setaria faberi, giant foxtail (Setaria faberi), 35 g ai/ha, read-out: Visual Growth Reduction (%) 14 Days After Application SETFA): 0 to 29%
- pest or weed control at 70 g/ha ([2]; Setaria faberi, giant foxtail (Setaria faberi), 70 g ai/ha, read-out: Visual Growth Reduction (%) 14 Days After Application SETFA): 0 to 29%
- pest or weed control at 140 g/ha ([2]; Setaria faberi, giant foxtail (Setaria faberi), 140 g ai/ha, read-out: Visual Growth Reduction (%) 14 Days After Application SETFA): 0 to 29%
- pest or weed control at 35 g/ha ([2]; Triticum aestivum, wheat, spring (Triticum aestivum), 35 g ai/ha, read-out: Visual Growth Reduction (%) 14 Days After Application TRZAS): 0 to 29%
- pest or weed control at 70 g/ha ([2]; Triticum aestivum, wheat, spring (Triticum aestivum), 70 g ai/ha, read-out: Visual Growth Reduction (%) 14 Days After Application TRZAS): 0 to 29%
- pest or weed control at 140 g/ha ([2]; Triticum aestivum, wheat, spring (Triticum aestivum), 140 g ai/ha, read-out: Visual Growth Reduction (%) 14 Days After Application TRZAS): 0 to 29%
- pest or weed control at 35 g/ha ([2]; Zea mays, maize, corn (Zea mays), 35 g ai/ha, read-out: Visual Growth Reduction (%) 14 Days After Application ZEAMX): 0 to 29%
- pest or weed control at 70 g/ha ([2]; Zea mays, maize, corn (Zea mays), 70 g ai/ha, read-out: Visual Growth Reduction (%) 14 Days After Application ZEAMX): 0 to 29%
- pest or weed control at 140 g/ha ([2]; Zea mays, maize, corn (Zea mays), 140 g ai/ha, read-out: Visual Growth Reduction (%) 14 Days After Application ZEAMX): 0 to 29%

Compound: Nc1c(Cl)c(C(=O)O)nc(-c2ccc3cc[nH]c3c2)c1Cl [Compound 106]
- Visual Growth Reduction (%) 14 Days After Application, ECHCG ([2]; barnyardgrass (Echinochloa crus-galli), 35 g ai/ha): G (0-29)
- Visual Growth Reduction (%) 14 Days After Application, ECHCG ([2]; barnyardgrass (Echinochloa crus-galli), 70 g ai/ha): D (60-74)
- Visual Growth Reduction (%) 14 Days After Application, ECHCG ([2]; barnyardgrass (Echinochloa crus-galli), 140 g ai/ha): C (75-84)
- Visual Growth Reduction (%) 14 Days After Application, SETFA ([2]; giant foxtail (Setaria faberi), 35 g ai/ha): G (0-29)
- Visual Growth Reduction (%) 14 Days After Application, SETFA ([2]; giant foxtail (Setaria faberi), 70 g ai/ha): G (0-29)
- Visual Growth Reduction (%) 14 Days After Application, SETFA ([2]; giant foxtail (Setaria faberi), 140 g ai/ha): G (0-29)
- Visual Growth Reduction (%) 14 Days After Application, ZEAMX ([2]; maize, corn (Zea mays), 35 g ai/ha): G (0-29)
- Visual Growth Reduction (%) 14 Days After Application, ZEAMX ([2]; maize, corn (Zea mays), 70 g ai/ha): G (0-29)
- Visual Growth Reduction (%) 14 Days After Application, ZEAMX ([2]; maize, corn (Zea mays), 140 g ai/ha): G (0-29)
- Visual Growth Reduction (%) 14 Days After Application, ORYSA ([2]; rice (Oryza sativa), 35 g ai/ha): G (0-29)
- Visual Growth Reduction (%) 14 Days After Application, ORYSA ([2]; rice (Oryza sativa), 70 g ai/ha): G (0-29)
- Visual Growth Reduction (%) 14 Days After Application, ORYSA ([2]; rice (Oryza sativa), 140 g ai/ha): G (0-29)
- Visual Growth Reduction (%) 14 Days After Application, TRZAS ([2]; wheat, spring (Triticum aestivum), 35 g ai/ha): G (0-29)
- Visual Growth Reduction (%) 14 Days After Application, TRZAS ([2]; wheat, spring (Triticum aestivum), 70 g ai/ha): G (0-29)
- Visual Growth Reduction (%) 14 Days After Application, TRZAS ([2]; wheat, spring (Triticum aestivum), 140 g ai/ha): G (0-29)
- Visual Growth Reduction (%) 14 Days After Application, CYPES ([2]; yellow nutsedge (Cyperus esculentus), 35 g ai/ha): G (0-29)
- Visual Growth Reduction (%) 14 Days After Application, CYPES ([2]; yellow nutsedge (Cyperus esculentus), 70 g ai/ha): G (0-29)
- Visual Growth Reduction (%) 14 Days After Application, CYPES ([2]; yellow nutsedge (Cyperus esculentus), 140 g ai/ha): G (0-29)
